The molecules below were run against T1, NHE-1 (Homo sapiens, UniProt P19634) (assay: Evaluation of NHE-1 Inhibition (pHi) in HT-29 cells). Settings: BCECF dye, 50% inhibition of the intracellular pH recovery, read-out: NHE1 HT29 pHi IC50.
T1 construct: endogenous in cells; host or cells: HT-29
Assay type: cell-based
Protocol: Evaluation of NHE-1 Inhibition (pHi)
HT-29 cells resuspended in DMEM supplemented with 10% FBS, 1% NEAA, and 1% Penn-Strep are seeded at 10,000 cells/well in collagen coated 384 well plates which are then incubated for 24 hours at 37° C. The next day, the medium is removed and the cells are dye (Invitrogen's BCECF) loaded for 30 minutes at 37° C., washed three times with an acid loading buffer (10 mM NH4Cl, 1.8 mM CaCl2, 90 mM Choline Cl, 5 mM Glucose, 15 mM Hepes, 5 mM KCl, 1 mM MgCl2, adjusted to pH 7.5 with KOH) and further incubated at RT for 30 minutes.
At the end of the incubation, the buffer is removed and 5 uL of fresh acid loading buffer is added to each well to prevent the dessication of the cells. The plate is placed in a Hamamatsu FDSS6000 instrument and candidate compounds are added to the cells.

T1 sequence (P19634 whole entry): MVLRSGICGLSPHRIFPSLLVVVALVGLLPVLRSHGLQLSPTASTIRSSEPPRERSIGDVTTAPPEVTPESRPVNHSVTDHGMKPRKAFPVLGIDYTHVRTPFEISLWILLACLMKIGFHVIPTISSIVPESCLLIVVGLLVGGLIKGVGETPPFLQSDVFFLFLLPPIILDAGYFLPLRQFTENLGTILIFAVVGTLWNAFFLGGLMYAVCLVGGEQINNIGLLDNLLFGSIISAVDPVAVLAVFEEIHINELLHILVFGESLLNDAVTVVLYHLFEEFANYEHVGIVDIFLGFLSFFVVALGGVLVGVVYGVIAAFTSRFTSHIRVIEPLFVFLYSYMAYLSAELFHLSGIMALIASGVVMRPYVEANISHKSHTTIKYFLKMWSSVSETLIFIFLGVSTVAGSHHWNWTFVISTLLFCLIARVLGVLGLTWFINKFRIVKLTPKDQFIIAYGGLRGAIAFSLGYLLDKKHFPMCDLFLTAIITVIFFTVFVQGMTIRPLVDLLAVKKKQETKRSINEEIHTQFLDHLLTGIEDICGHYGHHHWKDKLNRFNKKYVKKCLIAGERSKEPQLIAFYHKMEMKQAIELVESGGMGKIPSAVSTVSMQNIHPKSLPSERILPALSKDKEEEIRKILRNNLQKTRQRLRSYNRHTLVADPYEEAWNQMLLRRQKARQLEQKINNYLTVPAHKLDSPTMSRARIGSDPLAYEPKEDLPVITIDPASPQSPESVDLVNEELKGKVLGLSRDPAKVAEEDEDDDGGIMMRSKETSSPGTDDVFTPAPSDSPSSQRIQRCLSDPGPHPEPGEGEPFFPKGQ

SMILES	IC50 [nM]
N#Cc1ccc(CC(N)C(=O)N2CCC(c3ccc(C(=O)NC(=N)N)cc3C(F)(F)F)CC2)cc1 (centres unmarked) [N-(4-{1-[2-Amino-3-(4-cyano-phenyl)-propionyl]-piperidin-4-yl}-3-trifluoromethyl-benzoyl)-guanidine]	58
N=C(N)NC(=O)c1ccc(C2CCN(C(=O)c3cncc(-c4ccc(F)cc4)c3)CC2)c(C(F)(F)F)c1 [N-(4-{1-[5-(4-Fluoro-phenyl)-pyridine-3-carbonyl]-piperidin-4-yl}-3-trifluoromethyl-benzoyl)-guanidine]	185
COc1cccc(-c2ccc(C(=O)N3CCC(c4ccc(C(=O)NC(=N)N)cc4C(F)(F)F)CC3)cn2)c1 [N-(4-{1-[6-(3-Methoxy-phenyl)-pyridine-3-carbonyl]-piperidin-4-yl}-3-trifluoromethyl-benzoyl)-guanidine]	250
CS(=O)(=O)c1ccc(Oc2ccc(C(=O)N3CCC(c4ccc(C(=O)NC(=N)N)cc4C(F)(F)F)CC3)cn2)cc1 [N-(4-{1-[6-(4-Methanesulfonyl-phenoxy)-pyridine-3-carbonyl]-piperidin-4-yl}-3-trifluoromethyl-benzoyl)-guanidine]	54
COc1cc(C2CCN(C(C)=O)CC2)c(C(F)(F)F)cc1C(=O)NC(=N)N [N-[4-(1-Acetyl-piperidin-4-yl)-2-methoxy-5-trifluoromethyl-benzoyl]-guanidine]	14
CC(=O)N1CCC(c2cc(C)c(C(=O)NC(=N)N)cc2C(F)(F)F)CC1 [N-[4-(1-Acetyl-piperidin-4-yl)-2-methyl-5-trifluoromethyl-benzoyl]-guanidine]	9
CC(=O)N1CCC(c2ccc(C(=O)NC(=N)N)cc2S(C)(=O)=O)CC1 [N-[4-(1-Acetyl-piperidin-4-yl)-3-methanesulfonyl-benzoyl]-guanidine]	18
CC(=O)N1CCC(c2cc(C)c(C(=O)NC(=N)N)cc2S(C)(=O)=O)CC1 [N-[4-(1-Acetyl-piperidin-4-yl)-5-methanesulfonyl-2-methyl-benzoyl]-guanidine]	12
COCC(=O)N1CCC(c2cc(OC)c(C(=O)NC(=N)N)cc2C(F)(F)F)CC1 [N-{2-Methoxy-4-[1-(2-methoxy-acetyl)-piperidin-4-yl]-5-trifluoromethyl-benzoyl}-guanidine]	9
COc1cc(C2CCN(C(=O)c3ccc4c(c3)CCC(=O)N4)CC2)c(C(F)(F)F)cc1C(=O)NC(=N)N [N-{2-Methoxy-4-[1-(2-oxo-1,2,3,4-tetrahydro-quinoline-6-carbonyl)-piperidin-4-yl]-5-trifluoromethyl-benzoyl}-guanidine]	4

Next, values leading:

IC50 [nM]	SMILES
9	CC(=O)N1CCC(c2ccc(C(=O)NC(=N)N)cc2C(F)(F)F)CC1 [N-[4-(1-Acetyl-piperidin-4-yl)-3-trifluoromethyl-benzoyl]-guanidine]
45	N=C(N)NC(=O)c1ccc(C2CCN(C(=O)c3ccccc3)CC2)c(C(F)(F)F)c1 [N-[4-(1-Benzoyl-piperidin-4-yl)-3-trifluoromethyl-benzoyl]-guanidine]
30	CCCC(=O)N1CCC(c2ccc(C(=O)NC(=N)N)cc2C(F)(F)F)CC1 [N-[4-(1-Butyryl-piperidin-4-yl)-3-trifluoromethyl-benzoyl]-guanidine]
77	N=C(N)NC(=O)c1ccc(C2CCN(C(=O)C3CCCC3)CC2)c(C(F)(F)F)c1 [N-[4-(1-Cyclopentanecarbonyl-piperidin-4-yl)-3-trifluoromethyl-benzoyl]-guanidine]
16	N=C(N)NC(=O)c1ccc(C2CCN(C(=O)C3CC3)CC2)c(C(F)(F)F)c1 [N-[4-(1-Cyclopropanecarbonyl-piperidin-4-yl)-3-trifluoromethyl-benzoyl]-guanidine]
25	CC(C)C(=O)N1CCC(c2ccc(C(=O)NC(=N)N)cc2C(F)(F)F)CC1 [N-[4-(1-Isobutyryl-piperidin-4-yl)-3-trifluoromethyl-benzoyl]-guanidine]
12	CCC(=O)N1CCC(c2ccc(C(=O)NC(=N)N)cc2C(F)(F)F)CC1 [N-[4-(1-Propionyl-piperidin-4-yl)-3-trifluoromethyl-benzoyl]-guanidine]

Source: US20110118262A1, “Pyrrolidinyl and Piperidinyl Compounds Useful as NHE-1 Inhibitiors” (BOEHRINGER INGELHEIM INTERNATIONAL GMBH, priority 2008, published 2011)
